We go through three compounds from ChEMBL document CHEMBL1131856, “Wasalexins A and B, new phytoalexins from wasabi: isolation, synthesis, and antifungal activity” (1999).

Experiment [1] has as its system Plenodomus lingam. In words: Antifungal activity against P. Lingam by spore germination assay after 24 hours; range is 40-50%. The format is functional.
The test system of experiment [2] is Plenodomus lingam. In words: Antifungal activity against P. Lingam by spore germination assay after 24 hours; No detectable inhibitory activity. The format is functional, organism-based.

Usually Inhibition stands for the change of the read-out against control, counted positive when it falls. For `COC(=O)c1cn(OC)c2ccccc12`, in the experiment on Plenodomus lingam [1], the Inhibition was 50%.

On to `CSC(=N/C=C1/C(=O)N(C)c2ccccc21)SC`, for which the Activity result in the experiment with Plenodomus lingam [2] is “No detectable inhibitory activity”.

In the case of `CON1C(=O)/C(=C/N=C(SC)SC)c2ccccc21`, the Inhibition in the experiment with Plenodomus lingam [1] turned out to be 50%.
